Source: patent publication US7576102B2, “Biaryl substituted nitrogen containing heterocycle inhibitors of LTA4H for treating inflammation” (deCODE genetics ehf, priority 2005, dated 2009)
Where a name gives a salt, the structure may show the parent alone.

What was measured:
[1] = test system: LTB4 in human whole blood; experiment: Ex vivo assay testing inhibitory activity in human whole blood after stimulation with calcium ionophore (LTB4 by immunoassay); format: cell-based; settings: 20 μM ionomycin, read-out: IC50(μM) (hWB)
Procedure: (2) Ex vivo Assay Testing Inhibitory Activity in Human Whole Blood After Stimulation with Calcium Ionophor: Human blood was collected in heparin-containing Vacutainer tubes. For each sample, 200 μl of blood were dispensed into a pre-warmed plate and 188 μl of RPMI-1640 medium (Invitrogen) containing 20 μg/ml Indomethacin (Sigma, St. Louis, Mo.) were added. Then 4 μl of a series of compound dilutions (in DMSO) were added, followed by a 15 min incubation at 37° C. with gentle shaking. After that, blood samples were stimulated by adding lonomycin (Calbiochem) to a final concentration of 20 μM. After another incubation at 37° C. for 30 min, samples were centrifuged for 5 min at 1800 g and 4° C. Supernatants were taken and LTB4 concentrations were determined using a commercially available enzyme-linked immunoassay (R&D Systems, Minneapolis, Minn.) according to the manufacturer's instructions. Results obtained for different concentrations of hydrolase inhibitor were then used to fit a dose-response curve and calculate an IC50 value.

human LTA4 hydrolase = biological target: T1, human LTA4 hydrolase (Homo sapiens, UniProt P09960); experiment: In vitro assay testing inhibitory activity against purified recombinant human LTA4 hydrolase; format: biochemical; settings: 200 nM recombinant enzyme, 2 μM LTA4, LTB4 by LC-MS/MS; read-out: IC50(μM) (hLTA4H)
T1 construct: A human LTA4 hydrolase full-length cDNA clone (NM_000895) was purchased from OriGene Technologies; made in house; host or cells: Escherichia coli BL21-AI
T1 sequence (P09960 1-611): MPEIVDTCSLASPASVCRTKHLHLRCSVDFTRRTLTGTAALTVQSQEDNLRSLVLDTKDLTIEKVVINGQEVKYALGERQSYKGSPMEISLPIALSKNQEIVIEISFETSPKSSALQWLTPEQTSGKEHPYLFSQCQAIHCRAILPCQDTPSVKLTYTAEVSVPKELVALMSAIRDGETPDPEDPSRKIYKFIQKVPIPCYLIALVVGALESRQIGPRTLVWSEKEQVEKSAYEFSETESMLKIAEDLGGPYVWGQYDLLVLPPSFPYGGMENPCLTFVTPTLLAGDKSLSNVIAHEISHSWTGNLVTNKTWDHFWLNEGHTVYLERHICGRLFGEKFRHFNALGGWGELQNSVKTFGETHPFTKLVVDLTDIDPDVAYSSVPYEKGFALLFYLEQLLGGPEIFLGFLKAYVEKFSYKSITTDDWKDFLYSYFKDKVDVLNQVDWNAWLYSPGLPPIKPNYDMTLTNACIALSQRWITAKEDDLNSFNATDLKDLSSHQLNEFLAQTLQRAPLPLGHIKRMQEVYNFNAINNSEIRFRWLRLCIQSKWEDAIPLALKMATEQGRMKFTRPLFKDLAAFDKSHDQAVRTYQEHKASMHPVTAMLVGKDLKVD
Excerpt: (1) In vitro Assay Testing Inhibitory Activity Against Purified Recombinant Human LTA4 Hydroase:
A human LTA4 hydrolase full-length cDNA clone (NM_000895) was purchased from OriGene Technologies (Rockville, Md.). The gene was amplified by polmerase chain reaction and transferred via pDONR201 into the bacterial expression vector pDEST17 by recombination (both plasmids from Invitrogen, Carlsbad, Calif.). The resulting construct was transformed into Escherichia coli BL21-AI (Invitrogen), and expression was induced by chemical induction with arabinose. The recombinant enzyme was purified by chromatography on a FPLC system (Amersham Biosciences, Uppsala, Sweden) using immobilized metal affinity chromatography (Ni-NTA Superflow, Qiagen, Hilden, Germany) and anion exchange chromatography (MonoQ HR 10/10, Amersham Biosciences).
The compounds of the invention were incubated in a series of dilutions with 200 nM of recombinant enzyme in assay buffer (100 mM Tris-HCl, 100 mM NaCl, 5 mg/ml fatty-acid free BSA, 10% DMSO, pH 8.0) for 10 min at room temperature to allow binding between LTA4 hydrolase and the inhibitors. LTA4 was prepared by alkaline hydrolysis of LTA4 methyl ester (Biomol, Plymouth Meeting, Pa., or Cayman Chemicals, Ann Arbor, Mich.). A solution of 10 μg of the ester was dried under a nitrogen stream and redissolved in 60 μl of a solution of 80% aceton and 20% 0.25 M NaOH. After incubation for 40 min at room temperature the resulting approximately 500 μM tock of LTA4 was kept at −80° C. for no more than a few days prior to use.
Immediately before the assay, LTA4 was diluted to a concentration of 10 μM in assay buffer (without DMSO) and added to the reaction mixture to a final concentration of 2 μM to initiate the enzyme reaction. After incubation for 120 sec at room temperature, the reaction was stopped by adding 2 volumes of chilled quenching buffer, containing acetonitrile with 1% acetic acid and 225 nM LTB4-d4 (Biomol). The samples were then kept at 4° C. over night to complete protein precipitation and centrifuged for 15 min at 1800 g. LTB4 formed was measured by LC-MS/MS using LTB4-d4 as an internal standard and an external LTB4 standard (Biomol) as reference. Briefly, the analyte was separated from LTB4 isomers formed by spontaneous hydrolysis of LTA4 using isocratic elution (modified protocol from Mueller et al. (1996), J. Biol. Chem. 271, 24345-24348) on a HPLC system (Waters, Milford, Mass.) and analyzed on a tandem quadrupole mass spectrometer (Waters). MRM transitions followed on 2 channels were 335.2>195.3 (LTB4) and 339.2>197.3 (LTB4-d4). Based on the amounts of LTB4 found at each inhibitor concentration, a dose-response curve was fitted to the data and an IC50 value was calculated.

colitis symptoms = settings: eight weeks of treatment; cited from earlier work
[2] = test system: ionophore-induced LTB4 production; settings: oral administration; cited from earlier work
[3] = test system: ionophore-induced LTB4 production; settings: oral administration; cited from earlier work; remark: listed apart in the source

Work on `c1ccc(Cc2ccc(O[C@H]3CCNC3)cc2)cc1` [Example 1, (S) 3-(4-Benzyl-phenoxy)-pyrrolidine hydrochloride salt] yielded an IC50 [1] of under 5 µM and an IC50 (human LTA4 hydrolase) of under 5 µM.

With `c1ccc(Cc2ccc(O[C@@H]3CCNC3)cc2)cc1` [Example 2, (R) 3-(4-Benzyl-phenoxy)-pyrrolidine hydrochloride salt] the IC50 [1] was under 5 µM and the IC50 (human LTA4 hydrolase) was under 5 µM.

With `c1ccc(Oc2ccc(OC3CCNCC3)cc2)cc1` [Example 3, 4-(4-Phenoxy-phenoxy)-piperidine hydrochloride salt] the IC50 [1] was under 5 µM and the IC50 (human LTA4 hydrolase) was under 5 µM.

In the case of `O=C(O)CCCN1CC[C@@H](Oc2ccc(Cc3ccccc3)cc2)C1` [Example 4, 4-[(R)-3-(4-Benzyl-phenoxy)-pyrrolidin-1-yl]-butyric acid hydrochloride salt], the IC50 (human LTA4 hydrolase) is reported as under 5 µM.

Molecule `O=C(O)CCN1CCC(Oc2ccc(Oc3ccccc3)cc2)CC1` [Example 5, 3-[4-(4-Phenoxy-phenoxy)-piperidin-1-yl]-propionic acid] has an IC50 (human LTA4 hydrolase) of under 5 µM.

`O=C(O)CCCN1CCC(Oc2ccc(Oc3ccccc3)cc2)CC1` [Example 6, 4-[4-(4-Phenoxy-phenoxy)-piperidin-1-yl]-butyric acid hydrochloride salt] gave an IC50 (human LTA4 hydrolase) of under 5 µM.

`FC(F)(F)c1ccc(Oc2ccc(OC3CCNCC3)cc2)cc1` [Example 7, 4-[4-(4-Trifluoromethyl-phenoxy)-phenoxy]-piperidine hydrochloride salt] gave an IC50 (human LTA4 hydrolase) of under 5 µM.

With `c1ccc(-c2ccc(Oc3ccc(OC4CCNCC4)cc3)cc2)cc1` [Example 8, 4-[4-(Biphenyl-4-yloxy)-phenoxy]-piperidine hydrochloride salt] the IC50 [1] was under 5 µM and the IC50 (human LTA4 hydrolase) was under 5 µM.

`FC(F)(F)Oc1ccc(Oc2ccc(OC3CCNCC3)cc2)cc1` [Example 9, 4-[4-(4-Trifluoromethoxy-phenoxy)-phenoxy]-piperidine hydrochloride] showed an IC50 (human LTA4 hydrolase) of 5 to 20 µM.

`Clc1ccc(Oc2ccc(OC3CCNCC3)cc2)cc1` [Example 10, 4-[4-(4-Chloro-phenoxy)-phenoxy]-piperidine hydrochloride] showed an IC50 (human LTA4 hydrolase) of under 5 µM.

`c1ccc(Oc2ccc(O[C@@H]3CCNC3)cc2)cc1` [Example 11, (R)-3-(4-Phenoxy-phenoxy)-pyrrolidine hydrochloride] gave an IC50 (human LTA4 hydrolase) of under 5 µM.

In the case of `O=C(O)CCCN1CC[C@@H](Oc2ccc(Oc3ccccc3)cc2)C1` [Example 12, 4-[(R)-3-(4-Phenoxy-phenoxy)-pyrrolidin-1-yl]-butyric acid hydrogen chloride], the IC50 (human LTA4 hydrolase) is reported as under 5 µM.

In the case of `NC(=O)CCCN1CC[C@@H](Oc2ccc(Oc3ccccc3)cc2)C1` [Example 13, 4-[(R)-3-(4-Phenoxy-phenoxy)-pyrrolidin-1-yl]-butyramide], the IC50 (human LTA4 hydrolase) is reported as under 5 µM.

Work on `O=C(O)CCCN1CC[C@@H](Oc2ccc(Oc3ccc(Cl)cc3)cc2)C1` [Example 14, 4-{(R)-3-[4-(4-Chloro-phenoxy)-phenoxy]-pyrrolidin-1-yl}-butyric acid HCl] yielded an IC50 (human LTA4 hydrolase) of under 5 µM.

In the case of `CN(CCCOc1ccc(Cc2ccccc2)cc1)CCC(=O)O.Cl` [SC57461], the “colitis symptoms in a primate model” value (colitis symptoms) is given as “significantly improved colitis symptoms”, the “inhibition of ionophore-induced LTB4 production in mouse blood ex vivo” value [2] is given as “inhibition of ionophore-induced LTB4 production” and the “inhibition of ionophore-induced LTB4 production in rat peritoneum in vivo” value [3] is given as “inhibition of ionophore-induced LTB4 production”.
